As a reminder, the IC50 is the concentration at which inhibition is half-maximal. Low readings indicate inhibition by little substance, high ones a need for much substance. A word on the Ki: it is a dissociation constant, usually derived from enzyme kinetics or from competition with a known ligand. A low value points to higher affinity.

Drawing on patent US8415376B2, “Inhibitors of PI3 kinase” (Amgen Inc., priority 2008, dated 2013), this text covers IC50 and Ki for 19 molecules.

For assay [1], the system named is phosphorylation of Akt at Serine 473. Kind of assay: pAkt AlphaScreen (U87 cell). The note with it: Homo sapiens, U-87 MG; U87 MG cells, pAkt Ser473; average. The format is cell-based. On the procedure:
pAkt Alphascreen (U87 Cell)
The pAkt AlphaScreen® assay (PerkinElmer, Waltham, Mass.) determines whether there is phosphorylation of Akt at Serine 473 by recruitment of a phosphospecific antibody. This assay was performed using U87 MG cells. The U87 growth media consists of MEM (Gibco, Carlsbad, Calif.) supplemented with 10% FBS (Gibco,), 1× Non-Essential Amino Acids (Gibco,) and 1× Penicillin/Streptomycin/Glutamine (Gibco). The cells were maintained weekly using 0.05% Trypsin (Gibco) and replated in 150 mm TC-Treated Culture Dishes (Corning, Corning, N.Y.).
The first day of the assay, the adherent cells were trypsinized, media was added to the loose cells and cells were mixed to a homogenous mixture. 0.5 ml of the homogenous mixture was counted on the Beckman Coulter® Vi-CELL™ XR (Fullerton, Calif.). 50 frames of cells were counted and the number of viable cells was determined. The cells were then diluted to 0.25 million cells per ml, and centrifuged at 200 rcf for 5 minutes. The media was removed and the cells were reconstituted in fresh media for plating. The cells were plated at 20 μl per well on the PerkinElmer® FlexDrop PLUS in Low Volume 384 Well White Tissue Culture Plates (Corning) with a final cell density of 5K cells per well. The plates were incubated overnight at 37° Celsius, 5% CO2.
On the second day, the compound plates were prepared, the cells were treated with compound and the pAkt reaction mix was added to the cell lysate. 384 well compound plates were prepared containing 1 μl of compound per well starting at 5 mM and diluted 1:2 across the row, resulting in a 22 well serial dilution. 39 μl of growth media was added to the compound plate in rows 1-22 using the PerkinElmer® FlexDrop PLUS resulting in a DMSO concentration of 2.5%. The cell plates and diluted compound plates were put onto the VELOCITY11™ VPREP™ 384 ST where the compound plate was mixed and 5 μl of serially diluted compound or controls was added to the cell plate. The final concentration of the compounds was 25 μM serially diluted to 11.9 pM in 0.5% DMSO. The cell plates were then incubated with compound for two hours at 37° Celsius, 5% CO2. After two hours, the media in the cell plates was aspirated using the BioTek® ELx405HT plate washer (Winooski, Vt.) removing the majority of media and compound without disturbing the adherent U87 cells. The following assay reagents are components of the SureFire® Akt (Ser 473) Phosphorylation 50K Point Kit (TGR BioSciences, Adelaide, Austalia) and an IgG Detection Kit (PerkinElmer, Waltham, Mass.). 5 μl of 1× Lysis Buffer was added to each well using the PerkinElmer® FlexDrop PLUS. The plates were then incubated at room temperature on a shaker for ten minutes. The AlphaScreen® reaction was prepared under low light conditions (subdued or green light) including p-Akt (Ser 473) Reaction Buffer, Dilution Buffer, Activation Buffer, Acceptor Beads and Donor Beads at a ratio of 40:20:10:1:1 respectively. The AlphaScreen® reaction was added to the cell lysate at 6 μl per well using the PerkinElmer® FlexDrop PLUS. The plates were placed in a humid environment to reduce edge effects and incubated overnight at room temperature with restricted air flow in the dark.
On the final day of the experiment, the plates were read on the PerkinElmer® EnVision™ 2103 Multilable Reader using the standard AlphaScreen® readout. The POC is calculated and the data is analyzed to report the IC50 IP for pAkt at Serine 473.
Activity data for the compounds tested in the PI3K cell based Akt assay is provided in Table 2 under the column heading U87

Assay [2] has as its target T1, PI3Kα (Homo sapiens, UniProt P42336).
T1 construct: Full length p110 subunits of PI3K α, β and δ, N-terminally labeled with polyHis tag; polyHis (N); made in house; host or cells: Sf9 insect cells (baculovirus)
Kind of assay: In vitro PI3K AlphaScreen assay. It counts as biochemical. The note with it: average if run more than once. In general terms: Alpha assays give light when donor and acceptor beads are brought close together.
Description: In Vitro PI3K Alphascreen® Assay
The PI3K AlphaScreen® assay (PerkinElmer, Waltham, Mass.) measures the activity of a panel of four phosphoinositide 3-kinases: PI3Kα, PI3Kβ, PI3Kγ, and PI3Kδ. Each of these enzymes phosphorylates the 3′-hydroxyl group on phosphatidylinositiol (4,5)-bisphosphate (PIP2) to produce phosphatidylinositol (3,4,5)-trisphosphate (PIP3). This phosphorylation activity is measured using a GST-tagged PIP3 binding protein (Echelon Biosciences, Salt Lake City, Utah), an anti-GST-tagged Acceptor bead, and streptavidin-Donor bead. […] In the absence of this interaction, proximity of the Donor and Acceptor beads is decreased, producing a loss of luminescent signal which is inversely proportional to PI3K activity.
The enzyme reaction buffer is made using sterile water (Baxter, Deerfield, Ill.) and 50 mM Tris HCl pH 7, 14 mM MgCl2, 2 mM sodium cholate, and 100 mM NaCl. 2 mM DTT is added fresh the day of the experiment. The AlphaScreen® reaction buffer is made using sterile water and 10 mM Tris HCl pH 7.5, 150 mM NaCl, 0.10% Tween 20, and 30 mM EDTA. 1 mM DTT is added fresh the day of the experiment.
The source plates for this assay are 384-well Greiner clear polypropylene plates containing test compounds at 5mM and diluted 1:2 over 22 points. […] Source plates are replicated into 384-well Optiplates (PerkinElmer, Waltham, Mass.), 0.5 μL/well, to make assay-ready plates.
The different PI3K isoforms are each diluted in enzyme reaction buffer to 2× working solutions. […] Two different 2× substrate solutions are made in enzyme reaction buffer. In one solution, PI(4,5)P2 (Echelon Biosciences, Salt Lake City, Utah) is diluted to 10 μM and ATP is diluted to 20 μM. This solution is used in the assays testing PI3Kα and PI3Kβ. In a second solution, PI(4,5)P2 is diluted to 10 μM and ATP is diluted to 8 μM. This solution used in the assays testing PI3Kγ and PI3Kδ.
The AlphaScreen® reaction solutions are made using beads from the anti-GST AlphaScreen® kit (PerkinElmer, Waltham, Mass.). Two solutions are made in Alphascreen reaction buffer to 4× working concentrations. In one solution, biotinylated-IP4 (Echelon Biosciences, Salt Lake City, Utah) is diluted to 40 nM and streptavadin-Donor Beads are diluted to 80 μg/mL. In the second solution, PIP3-binding protein (Echelon Biosciences, Salt Lake City, Utah) is diluted to 40 nM and anti-GST-Acceptor Beads are diluted to 80 μg/mL. 10 μL/well of enzyme reaction buffer is added to Column 24 of the assay ready plates in place of enzyme. This is done for plates in the PI3Kα, β, and 67 assays.
Using a 384-well dispensing Multidrop (Titertek, Huntsville, Ala.), 10 μL/well of 2× enzyme (PI3Kα, β, δ) is added to Columns 1-23 of the appropriate assay ready plates (for PI3Kγ 10 μL is added to Columns 1-24). 10 μL/well of the appropriate substrate solution (the solution with 20 μM ATP for PI3Kα and β assays, and the solution with 8 μM ATP for PI3Kγ and δ assays) is then added to Columns 1-24 of the plates. Plates are then incubated at room temperature for 20 minutes.
In the dark, 10 μL/well of the Donor Bead solution is added to Columns 1-24 of the plates to quench the enzyme reaction. The plates are incubated at room temperature for 30 minutes. Still in the dark, 10 μL/well of the Acceptor Bead solution is also added to Columns 1-24 of the plates. The plates are then incubated in the dark for 1.5 hours. The plates are read on an Envision Multilabel Plate Reader (PerkinElmer, Waltham, Mass.) with a 680 nm excitation filter and a 520-620 nm emission filter.

Assay [3] concerns the target T2, mTOR (Homo sapiens, UniProt P42345).
T2 construct: purchased Invitrogen (Carlsbad, Calif.)
Nature of the assay: In vitro mTOR assay (Lanthascreen). The format is biochemical. The note with it: average if run more than once. The procedure, abridged: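 mTOR activity measured by TR-FRET as Thr46 phosphorylation of GFP-4E-BP1, detected with Tb-labelled anti-phospho-4E-BP1 [T46] antibody after EDTA stop. Final 50 ng/mL mTOR, 400 nM GFP-4E-BP1, 7 μM ATP in HEPES pH 7.5 with 10 mM MnCl2; 1 h, room temperature. 10-point 1:3 compound series.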
In general terms: Time-resolved FRET reads energy transfer from a long-lived donor to a nearby acceptor.

T1 sequence (P42336 whole entry): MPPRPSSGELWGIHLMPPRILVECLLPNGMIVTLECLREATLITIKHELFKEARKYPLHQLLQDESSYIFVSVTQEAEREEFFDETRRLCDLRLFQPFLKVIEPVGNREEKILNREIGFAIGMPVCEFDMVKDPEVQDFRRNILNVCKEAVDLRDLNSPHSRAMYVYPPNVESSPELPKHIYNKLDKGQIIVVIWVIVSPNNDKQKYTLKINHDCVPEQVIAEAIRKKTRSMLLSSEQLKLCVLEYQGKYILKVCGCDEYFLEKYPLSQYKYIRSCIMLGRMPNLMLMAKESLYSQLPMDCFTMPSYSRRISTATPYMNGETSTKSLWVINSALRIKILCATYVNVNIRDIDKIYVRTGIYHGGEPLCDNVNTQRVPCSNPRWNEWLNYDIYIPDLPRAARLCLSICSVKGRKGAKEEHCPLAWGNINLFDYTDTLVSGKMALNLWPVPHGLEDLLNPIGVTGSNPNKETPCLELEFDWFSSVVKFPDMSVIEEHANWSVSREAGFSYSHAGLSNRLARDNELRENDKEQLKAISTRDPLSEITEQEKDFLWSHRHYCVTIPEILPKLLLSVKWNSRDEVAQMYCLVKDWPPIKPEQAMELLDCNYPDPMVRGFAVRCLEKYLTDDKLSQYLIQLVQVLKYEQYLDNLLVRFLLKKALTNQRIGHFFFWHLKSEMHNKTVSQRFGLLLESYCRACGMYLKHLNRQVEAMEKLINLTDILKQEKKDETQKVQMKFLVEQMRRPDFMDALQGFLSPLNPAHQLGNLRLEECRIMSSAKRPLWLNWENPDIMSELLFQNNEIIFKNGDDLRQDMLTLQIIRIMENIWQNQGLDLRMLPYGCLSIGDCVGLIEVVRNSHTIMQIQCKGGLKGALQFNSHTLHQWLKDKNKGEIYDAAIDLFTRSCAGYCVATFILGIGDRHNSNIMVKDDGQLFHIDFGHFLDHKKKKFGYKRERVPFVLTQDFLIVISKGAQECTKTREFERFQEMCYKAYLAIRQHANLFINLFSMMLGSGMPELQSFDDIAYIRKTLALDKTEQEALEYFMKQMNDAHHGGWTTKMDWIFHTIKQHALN
T1 sequence (P27986 whole entry partner): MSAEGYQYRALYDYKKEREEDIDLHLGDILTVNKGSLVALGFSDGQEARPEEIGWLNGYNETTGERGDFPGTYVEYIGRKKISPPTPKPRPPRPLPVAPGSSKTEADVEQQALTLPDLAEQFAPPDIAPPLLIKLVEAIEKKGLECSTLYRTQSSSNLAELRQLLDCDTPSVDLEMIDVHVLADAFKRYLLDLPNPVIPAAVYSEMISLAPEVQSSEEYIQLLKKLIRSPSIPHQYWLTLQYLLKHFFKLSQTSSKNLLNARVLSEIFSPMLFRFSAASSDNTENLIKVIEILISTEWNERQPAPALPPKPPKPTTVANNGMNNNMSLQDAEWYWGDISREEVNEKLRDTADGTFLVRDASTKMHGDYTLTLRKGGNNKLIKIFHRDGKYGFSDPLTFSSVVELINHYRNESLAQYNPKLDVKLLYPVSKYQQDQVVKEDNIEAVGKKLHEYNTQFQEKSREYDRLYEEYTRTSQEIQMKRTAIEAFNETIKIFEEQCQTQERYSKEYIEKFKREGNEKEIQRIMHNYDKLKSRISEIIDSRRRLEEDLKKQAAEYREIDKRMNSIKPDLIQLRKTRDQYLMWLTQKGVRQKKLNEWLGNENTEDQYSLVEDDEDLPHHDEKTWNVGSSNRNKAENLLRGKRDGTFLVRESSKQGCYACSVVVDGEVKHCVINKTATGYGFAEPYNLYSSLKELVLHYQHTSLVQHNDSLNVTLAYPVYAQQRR
T2 sequence (P42345 1360-2549 limits assumed): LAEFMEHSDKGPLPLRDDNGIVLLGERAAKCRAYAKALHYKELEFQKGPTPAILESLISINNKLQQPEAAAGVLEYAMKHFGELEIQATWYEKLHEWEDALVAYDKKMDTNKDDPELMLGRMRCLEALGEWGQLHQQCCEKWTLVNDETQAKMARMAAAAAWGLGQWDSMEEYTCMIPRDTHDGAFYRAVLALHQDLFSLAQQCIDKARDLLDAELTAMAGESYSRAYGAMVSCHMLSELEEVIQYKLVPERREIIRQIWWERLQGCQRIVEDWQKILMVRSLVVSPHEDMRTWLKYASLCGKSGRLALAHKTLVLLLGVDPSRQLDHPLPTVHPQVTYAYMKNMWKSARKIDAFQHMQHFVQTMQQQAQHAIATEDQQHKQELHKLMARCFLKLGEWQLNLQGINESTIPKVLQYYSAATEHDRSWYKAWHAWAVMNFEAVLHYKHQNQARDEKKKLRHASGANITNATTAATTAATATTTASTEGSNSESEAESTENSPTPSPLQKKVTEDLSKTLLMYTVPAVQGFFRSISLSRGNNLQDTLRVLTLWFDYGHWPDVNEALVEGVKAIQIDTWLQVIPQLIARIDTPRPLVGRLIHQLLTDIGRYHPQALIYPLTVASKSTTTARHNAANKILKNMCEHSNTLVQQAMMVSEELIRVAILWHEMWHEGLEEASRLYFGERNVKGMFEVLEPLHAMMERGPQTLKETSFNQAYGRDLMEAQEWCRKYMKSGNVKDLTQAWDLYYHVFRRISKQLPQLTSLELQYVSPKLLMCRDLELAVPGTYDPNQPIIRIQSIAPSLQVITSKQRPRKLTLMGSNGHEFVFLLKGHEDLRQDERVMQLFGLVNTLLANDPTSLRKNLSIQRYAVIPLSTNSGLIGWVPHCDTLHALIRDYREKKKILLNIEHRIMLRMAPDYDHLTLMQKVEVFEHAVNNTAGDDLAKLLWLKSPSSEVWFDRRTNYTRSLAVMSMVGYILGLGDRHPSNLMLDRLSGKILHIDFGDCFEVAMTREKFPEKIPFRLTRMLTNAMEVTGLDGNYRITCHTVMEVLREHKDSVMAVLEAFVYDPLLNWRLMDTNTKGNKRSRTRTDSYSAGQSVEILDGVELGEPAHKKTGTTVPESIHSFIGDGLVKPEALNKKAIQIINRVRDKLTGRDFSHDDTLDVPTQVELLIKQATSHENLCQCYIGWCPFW

As for `CN(Cc1cccc(F)c1)c1ccnc2ccc(-c3cnc(Cl)c(NS(C)(=O)=O)c3)cc12` [Example 85, N-(2-chloro-5-(4-((3-fluorobenzyl)(methyl)amino)-6-quinolinyl)-3-pyridinyl)methanesulfonamide], the IC50 came out at 1.66 µM in assay [1] and 0.0621 µM in assay [3]. In assay [2], this molecule registered a Ki of 0.0158 µM.
The corresponding values for `CS(=O)(=O)Nc1cc(-c2ccc3nccc(N4Cc5ccc(F)cc5C4)c3c2)cnc1Cl` [Example 86, N-(2-chloro-5-(4-(5-fluoro-1,3-dihydro-2H-isoindol-2-yl)-6-quinolinyl)-3-pyridinyl)methanesulfonamide] are 0.667 µM, 0.162 µM and 0.016 µM.
For the molecule `COc1ccc(OC)c(CNc2ccnc3ccc(-c4cnc(Cl)c(NS(C)(=O)=O)c4)cc23)c1` [Example 87, N-(2-chloro-5-(4-((2,5-dimethoxybenzyl)amino)-6-quinolinyl)-3-pyridinyl)methanesulfonamide], the IC50 in assay [1] is 1.42 µM; in assay [3], 0.295 µM. The Ki in assay [2] was determined as 0.0332 µM.
Turning to `CS(=O)(=O)Nc1cc(-c2ccc3nccc(NC4CCNCC4)c3c2)cnc1Cl` [Example 88, N-(2-chloro-5-(4-(4-piperidinylamino)-6-quinolinyl)-3-pyridinyl)methanesulfonamide], the IC50 in assay [1] is 6.84 µM; in assay [3], 1.77 µM. The same molecule gave a Ki in assay [2] of 0.161 µM.
Consider `CC1(C)CN(c2ccnc3ccc(-c4cnc(Cl)c(NS(C)(=O)=O)c4)cc23)CCO1` [Example 90, N-(2-chloro-5-(4-(2,2-dimethyl-4-morpholinyl)-6-quinolinyl)-3-pyridinyl)methanesulfonamide], for which the results for the IC50 in assay [1] and in assay [3] were 0.0484 µM and 0.0044 µM, respectively. This molecule also gave a Ki in assay [2] of 0.0107 µM.
As for `CS(=O)(=O)Nc1cc(-c2ccc3ncc(N4CCOCC4)nc3c2)cnc1Cl` [Example 92, N-(2-chloro-5-(3-(4-morpholinyl)-6-quinoxalinyl)-3-pyridinyl)methanesulfonamide], the IC50 in assay [1] is 0.084 µM; in assay [3], 0.0283 µM. In assay [2], this molecule gave a Ki of 0.0028 µM.
In the case of `O=S(=O)(Nc1cc(-c2ccc3nccc(-c4ccnc(Cl)c4)c3c2)cnc1Cl)c1ccc(F)cc1` [Example 94, N-(2-chloro-5-(4-(2-chloro-4-pyridinyl)-6-quinolinyl)-3-pyridinyl)-4-fluorobenzenesulfonamide], the IC50 in assay [1] stood at 0.0053 µM; in assay [3], 0.0006 µM. Further, the affinity in assay [2], expressed as Ki, was 0.0013 µM.
Take `C[C@@H]1CN(c2ccnc3ccc(-c4cnc(Cl)c(NS(=O)(=O)c5ccc(F)cc5)c4)cc23)C[C@H](C)O1` [Example 96, N-(2-chloro-5-(4-((2R,6S)-2,6-dimethyl-4-morpholinyl)-6-quinolinyl)-3-pyridinyl)-4-fluorobenzenesulfonamide]: the 50% inhibitory concentration (IC50) in assay [1] stood at 0.0375 µM; in assay [3], 0.011 µM. For the same molecule, in assay [2], the Ki is 0.0068 µM.
The corresponding values for `O=S(=O)(Nc1cc(-c2ccc3nccc(N4CCOCC4)c3c2)cnc1Cl)c1cccnc1` [Example 101, N-(2-chloro-5-(4-(4-morpholinyl)-6-quinolinyl)-3-pyridinyl)-3-pyridinesulfonamide] are 0.0762 µM, 0.0036 µM and 0.0027 µM.
For the molecule `CN(C)c1ccc(-c2ccnc3ccc(-c4cnc(Cl)c(NS(=O)(=O)c5ccc(F)cc5)c4)cc23)cc1` [Example 102, N-(2-chloro-5-(4-(4-(dimethylamino)phenyl)-6-quinolinyl)-3-pyridinyl)-4-fluorobenzenesulfonamide], the IC50 was found to be 0.0641 µM in assay [1] and 0.0153 µM in assay [3]. In assay [2], this molecule had a Ki of 0.0013 µM.
Regarding `C[C@@H]1CN(c2ccnc3ccc(-c4cnc(Cl)c(NS(C)(=O)=O)c4)cc23)C[C@H](C)O1` [Example 103, N-(2-chloro-5-(4-((2R,6S)-2,6-dimethyl-4-morpholinyl)-6-quinolinyl)-3-pyridinyl)methanesulfonamide], the IC50 amounted to 0.0556 µM in assay [1] and 0.0102 µM in assay [3]. This molecule had a Ki in assay [2] of 0.0032 µM.
On to `Cc1cc(-c2ccnc3ccc(-c4cnc(Cl)c(NS(C)(=O)=O)c4)cc23)ccn1` [Example 105, N-(2-chloro-5-(4-(2-methyl-4-pyridinyl)-6-quinolinyl)-3-pyridinyl)methanesulfonamide], for which the IC50 in assay [1] stood at 0.0085 µM; in assay [3], 0.0015 µM. In assay [2], this molecule came in with a Ki of 0.0015 µM.
In the case of `COc1cc(-c2ccnc3ccc(-c4cnc(Cl)c(NS(C)(=O)=O)c4)cc23)ccn1` [Example 106, N-(2-chloro-5-(4-(2-methoxy-4-pyridinyl)-6-quinolinyl)-3-pyridinyl)methanesulfonamide], the IC50 in assay [1] is 0.0259 µM; in assay [3], 0.0034 µM. In addition, in assay [2], the affinity corresponds to a Ki of 0.0019 µM.
Turning to `CS(=O)(=O)Nc1cc(-c2ccc3nccc(C4=CCOCC4)c3c2)cnc1Cl` [Example 107, N-(2-chloro-5-(4-(3,6-dihydro-2H-pyran-4-yl)-6-quinolinyl)-3-pyridinyl)methanesulfonamide], the figures for the IC50 in assay [1] and in assay [3] were 0.0198 µM and 0.004 µM, respectively. Besides, affinity in assay [2] was put at a Ki of 0.0017 µM.
In the case of `O=S(=O)(Nc1cc(-c2ccc3nccc(OC4CCSC4)c3c2)cnc1Cl)c1ccc(F)cc1` (stereo not drawn) [Example 108, N-(2-chloro-5-(4-(tetrahydro-3-thiophenyloxy)-6-quinolinyl)-3-pyridinyl)-4-fluorobenzenesulfonamide], the IC50 in assay [1] was 0.306 µM; in assay [3] it was 0.0079 µM. In assay [2], this molecule yielded a Ki of 0.0023 µM.
For `C[C@H]1CN(c2ccnc3ccc(-c4cnc(Cl)c(NS(C)(=O)=O)c4)cc23)C[C@H](C)O1` [Example 109, N-(2-chloro-5-(4-((2S,6S)-2,6-dimethyl-4-morpholinyl)-6-quinolinyl)-3-pyridinyl)methanesulfonamide], the figures for the IC50 in assay [1] and in assay [3] were 0.0214 µM and 0.0137 µM, respectively. Also, the Ki in assay [2] worked out at 0.0032 µM.
As to `C[C@@H]1CN(c2ccnc3ccc(-c4cnc(Cl)c(NS(C)(=O)=O)c4)cc23)C[C@@H](C)O1` [Example 110, N-(2-chloro-5-(4-((2R,6R)-2,6-dimethyl-4-morpholinyl)-6-quinolinyl)-3-pyridinyl)methanesulfonamide], the IC50 in assay [1] came out at 0.0141 µM; in assay [3] it was 0.0051 µM. This molecule also had a Ki in assay [2] of 0.0063 µM.
The corresponding values for `CS(=O)(=O)Nc1cc(-c2ccc3nccc(-c4ccnc(C(F)(F)F)c4)c3c2)cnc1Cl` [Example 111, N-(2-chloro-5-(4-(2-(trifluoromethyl)-4-pyridinyl)-6-quinolinyl)-3-pyridinyl)methanesulfonamide] are 0.0261 µM, 0.0028 µM and 0.003 µM.
Consider `CS(=O)(=O)Nc1cc(-c2ccc3nccc(-c4ccc(C(F)(F)F)nc4)c3c2)cnc1Cl` [Example 112, N-(2-chloro-5-(4-(6-(trifluoromethyl)-3-pyridinyl)-6-quinolinyl)-3-pyridinyl)methanesulfonamide], for which the IC50 in assay [1] stood at 0.0091 µM; in assay [3], 0.0021 µM. Further, in assay [2], the affinity corresponds to a Ki of 0.0021 µM.
